Where “and” joins values, the source holds several entries; their conditions need not be identical. Equal values may be shown once.
Conditions: Liquid, transient hot wire

O=C(C(F)(F)C(F)(F)F)C(F)(C(F)(F)F)C(F)(F)F [dodecafluoro-2-methylpentan-3-one]
Conditions | thermal conductivity
182.75 K, 277 kPa | 0.07883 W/m/K
182.75 K, 315 kPa | 0.07859 W/m/K
182.89 K, 13189 kPa | 0.08133 W/m/K
182.89 K, 19887 kPa | 0.08218 W/m/K
182.89 K, 19910 kPa | 0.08244 W/m/K
182.89 K, 21592 kPa | 0.08301 W/m/K
182.89 K, 21600 kPa | 0.08295 W/m/K
182.9 K, 13187 kPa | 0.08114 W/m/K
183.09 K, 352 kPa | 0.0792 W/m/K
183.09 K, 355 kPa | 0.07913 W/m/K
183.16 K, 13354 kPa | 0.08121 W/m/K
183.16 K, 13358 kPa | 0.08178 W/m/K
183.18 K, 6554 kPa | 0.07996 W/m/K
183.18 K, 6555 kPa | 0.08035 W/m/K
183.19 K, 88 kPa | 0.07924 W/m/K
183.19 K, 92 kPa | 0.07941 W/m/K
183.21 K, 21596 kPa | 0.08274 W/m/K
183.21 K, 21614 kPa | 0.08282 W/m/K
183.22 K, 13197 kPa | 0.08104 W/m/K
183.22 K, 13203 kPa | 0.08122 W/m/K
183.22 K, 19909 kPa | 0.08195 W/m/K
183.22 K, 19917 kPa | 0.08246 W/m/K
183.46 K, 394 kPa | 0.07899 W/m/K
183.47 K, 372 kPa | 0.07904 W/m/K
183.49 K, 13357 kPa | 0.0812 W/m/K
183.49 K, 13358 kPa | 0.08133 W/m/K
183.51 K, 6548 kPa | 0.08023 W/m/K
183.51 K, 6554 kPa | 0.08027 W/m/K
183.52 K, 86 kPa | 0.07888 W/m/K
183.53 K, 84 kPa | 0.07899 W/m/K
183.57 K, 19904 kPa | 0.08223 W/m/K
183.57 K, 19917 kPa | 0.08242 W/m/K
183.57 K, 21616 kPa | 0.0827 W/m/K
183.57 K, 21619 kPa | 0.08258 W/m/K
183.58 K, 13189 kPa | 0.08088 W/m/K and 0.0813 W/m/K
183.86 K, 13353 kPa | 0.08129 W/m/K
183.86 K, 13354 kPa | 0.08129 W/m/K
183.88 K, 417 kPa | 0.07826 W/m/K
183.88 K, 441 kPa | 0.07853 W/m/K
183.88 K, 6566 kPa | 0.0801 W/m/K
183.88 K, 6568 kPa | 0.07993 W/m/K
183.9 K, 66 kPa | 0.07888 W/m/K
183.96 K, 21629 kPa | 0.08212 W/m/K
183.97 K, 19889 kPa | 0.08191 W/m/K
183.97 K, 19910 kPa | 0.08222 W/m/K
183.97 K, 21622 kPa | 0.0819 W/m/K
183.98 K, 13198 kPa | 0.08092 W/m/K
183.98 K, 13202 kPa | 0.08101 W/m/K
184.26 K, 13357 kPa | 0.08106 W/m/K
184.26 K, 13366 kPa | 0.08106 W/m/K
184.29 K, 6565 kPa | 0.07964 W/m/K
184.29 K, 6575 kPa | 0.07978 W/m/K
184.31 K, 72 kPa | 0.07867 W/m/K
184.31 K, 77 kPa | 0.07869 W/m/K
184.34 K, 428 kPa | 0.07819 W/m/K
184.34 K, 453 kPa | 0.0783 W/m/K
184.41 K, 19891 kPa | 0.08157 W/m/K
184.41 K, 19917 kPa | 0.08156 W/m/K
184.41 K, 21623 kPa | 0.08222 W/m/K
184.41 K, 21641 kPa | 0.08226 W/m/K
184.43 K, 13196 kPa | 0.0804 W/m/K
184.43 K, 13197 kPa | 0.08067 W/m/K
184.7 K, 13354 kPa | 0.08048 W/m/K
184.71 K, 13360 kPa | 0.0804 W/m/K
184.74 K, 6561 kPa | 0.07906 W/m/K
184.74 K, 6562 kPa | 0.07913 W/m/K
184.76 K, 74 kPa | 0.07764 W/m/K
184.77 K, 70 kPa | 0.07835 W/m/K
191.32 K, 109 kPa | 0.078 W/m/K
191.32 K, 120 kPa | 0.07787 W/m/K
191.32 K, 6011 kPa | 0.07821 W/m/K
191.32 K, 6012 kPa | 0.0792 W/m/K
191.32 K, 9411 kPa | 0.08012 W/m/K
191.33 K, 9419 kPa | 0.07979 W/m/K
191.63 K, 28269 kPa | 0.08273 W/m/K
191.63 K, 28273 kPa | 0.08292 W/m/K
191.63 K, 36162 kPa | 0.08425 W/m/K
191.64 K, 36124 kPa | 0.08408 W/m/K
191.64 K, 44196 kPa | 0.08537 W/m/K
191.64 K, 44213 kPa | 0.08541 W/m/K
191.64 K, 52630 kPa | 0.08621 W/m/K
191.65 K, 52615 kPa | 0.08649 W/m/K
191.65 K, 61105 kPa | 0.08792 W/m/K
191.65 K, 61123 kPa | 0.08784 W/m/K
191.65 K, 67633 kPa | 0.08918 W/m/K
191.65 K, 67642 kPa | 0.08859 W/m/K
191.66 K, 154 kPa | 0.07783 W/m/K
191.66 K, 6412 kPa | 0.07892 W/m/K
191.66 K, 6427 kPa | 0.07902 W/m/K
191.66 K, 13243 kPa | 0.0804 W/m/K
191.66 K, 13255 kPa | 0.08025 W/m/K
191.66 K, 20239 kPa | 0.08175 W/m/K
191.66 K, 20246 kPa | 0.08164 W/m/K
191.67 K, 112 kPa | 0.07744 W/m/K
191.67 K, 147 kPa | 0.07786 W/m/K
191.67 K, 6032 kPa | 0.07883 W/m/K
191.67 K, 9411 kPa | 0.07946 W/m/K
191.67 K, 9418 kPa | 0.07986 W/m/K
191.68 K, 121 kPa | 0.07734 W/m/K
191.68 K, 6013 kPa | 0.07908 W/m/K
192 K, 28272 kPa | 0.08275 W/m/K
192 K, 36150 kPa | 0.084 W/m/K
192 K, 36164 kPa | 0.08417 W/m/K
192 K, 44217 kPa | 0.08526 W/m/K
192 K, 52622 kPa | 0.08646 W/m/K
192 K, 52639 kPa | 0.08637 W/m/K
192 K, 61093 kPa | 0.08779 W/m/K
192 K, 67605 kPa | 0.08855 W/m/K
192.01 K, 28268 kPa | 0.08282 W/m/K
192.01 K, 44219 kPa | 0.08526 W/m/K
192.01 K, 61086 kPa | 0.08772 W/m/K
192.01 K, 67622 kPa | 0.08858 W/m/K
192.04 K, 6436 kPa | 0.07895 W/m/K
192.04 K, 13246 kPa | 0.08024 W/m/K
192.04 K, 13262 kPa | 0.08043 W/m/K
192.04 K, 20234 kPa | 0.08155 W/m/K
192.05 K, 6439 kPa | 0.07899 W/m/K
192.05 K, 20236 kPa | 0.0816 W/m/K
192.06 K, 157 kPa | 0.07749 W/m/K
192.06 K, 162 kPa | 0.07742 W/m/K
192.06 K, 9415 kPa | 0.07961 W/m/K
192.06 K, 9425 kPa | 0.07956 W/m/K
192.07 K, 124 kPa | 0.07716 W/m/K
192.07 K, 6029 kPa | 0.07889 W/m/K
192.07 K, 6037 kPa | 0.07899 W/m/K
192.08 K, 123 kPa | 0.07723 W/m/K
192.39 K, 61059 kPa | 0.08761 W/m/K
192.39 K, 67589 kPa | 0.08872 W/m/K
192.4 K, 44218 kPa | 0.08528 W/m/K
192.4 K, 52626 kPa | 0.08558 W/m/K
192.4 K, 61080 kPa | 0.08772 W/m/K
192.4 K, 67603 kPa | 0.08923 W/m/K
192.41 K, 28286 kPa | 0.08272 W/m/K
192.41 K, 36171 kPa | 0.08404 W/m/K
192.41 K, 44213 kPa | 0.08463 W/m/K
192.41 K, 52617 kPa | 0.08563 W/m/K
192.42 K, 28275 kPa | 0.08201 W/m/K
192.42 K, 36146 kPa | 0.08395 W/m/K
192.45 K, 20243 kPa | 0.08132 W/m/K
192.46 K, 20239 kPa | 0.08136 W/m/K
192.47 K, 13253 kPa | 0.08039 W/m/K
192.47 K, 13262 kPa | 0.08013 W/m/K
192.48 K, 6426 kPa | 0.07848 W/m/K
192.48 K, 6434 kPa | 0.07874 W/m/K
192.49 K, 9414 kPa | 0.0792 W/m/K
192.5 K, 157 kPa | 0.07741 W/m/K
192.5 K, 161 kPa | 0.07715 W/m/K
192.5 K, 6046 kPa | 0.07875 W/m/K and 0.07884 W/m/K
192.5 K, 9410 kPa | 0.07887 W/m/K
192.51 K, 147 kPa | 0.0771 W/m/K
192.52 K, 131 kPa | 0.07714 W/m/K
192.82 K, 67573 kPa | 0.08822 W/m/K
192.82 K, 67584 kPa | 0.08836 W/m/K
192.83 K, 52603 kPa | 0.08551 W/m/K
192.83 K, 61059 kPa | 0.08671 W/m/K
192.83 K, 61067 kPa | 0.08703 W/m/K
192.84 K, 44211 kPa | 0.08516 W/m/K
192.84 K, 52611 kPa | 0.08588 W/m/K
192.85 K, 44221 kPa | 0.08537 W/m/K
192.86 K, 36164 kPa | 0.08389 W/m/K and 0.08381 W/m/K
192.87 K, 28295 kPa | 0.08266 W/m/K
192.87 K, 28317 kPa | 0.08252 W/m/K
192.92 K, 20232 kPa | 0.08125 W/m/K
192.92 K, 20252 kPa | 0.08125 W/m/K
192.94 K, 13254 kPa | 0.08003 W/m/K
192.96 K, 6419 kPa | 0.07805 W/m/K
192.96 K, 6437 kPa | 0.07805 W/m/K

— the NIST ThermoML archive (doi:10.1021/acs.jced.8b00132)
